Source: patent EP0549433A1, “Use of N'-substituted N-phenylsulfonylureas in the treatment of hypertension in insulin-resistant patients” (ADIR ET COMPAGNIE, priority 1991, dated 1993)

System: rat âgé
Experiment: Chronic treatment of the aged rat: arterial blood pressure
Assay type: in vivo
Conditions: young rat (3 months per Tableau 1); 0,1 à 1 mg /kg par jour for 2 weeks
Procedure: Etude du traitement chronique du rat âgé
Au cours du vieillissement, une insulino-résistance apparaît, accompagnée d'une hyperinsulinémie et d'une élévation de la pression artérielle (cf tableau 1 ci-après).
A titre d'exemple, le traitement par le gliclazide à la dose de 0,1 à 1 mg /kg par jour pendant 2 semaines, diminue la pression artérielle du rat âgé de 9.10² à 11.10² Pa sans modifier celle du rat jeune.

For `Cc1ccc(S(=O)(=O)NC(=O)NN2CC3CCCC3C2)cc1` (stereo not shown) [gliclazide], which “pression artérielle du rat jeune” value is on record?
The value was “sans modifier”.
